Test results as given in ChEMBL document CHEMBL1201862, “PubChem BioAssay data set” (2004).
Activity calls are given as the source filed them.

What was measured:
[1] = molecular target: T1, Short transient receptor potential channel 4 (Mus musculus, UniProt Q9QUQ5); assay: mouse TRPC4 channel inhibitors, dose response, cell-based, HEK293 TRPC4/mu-opioid, Fluo-4 calcium (AID 434942); type: functional;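 also: potency of inhibitors blocking the TRPC4 calcium response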
T1 sequence (Q9QUQ5 whole entry): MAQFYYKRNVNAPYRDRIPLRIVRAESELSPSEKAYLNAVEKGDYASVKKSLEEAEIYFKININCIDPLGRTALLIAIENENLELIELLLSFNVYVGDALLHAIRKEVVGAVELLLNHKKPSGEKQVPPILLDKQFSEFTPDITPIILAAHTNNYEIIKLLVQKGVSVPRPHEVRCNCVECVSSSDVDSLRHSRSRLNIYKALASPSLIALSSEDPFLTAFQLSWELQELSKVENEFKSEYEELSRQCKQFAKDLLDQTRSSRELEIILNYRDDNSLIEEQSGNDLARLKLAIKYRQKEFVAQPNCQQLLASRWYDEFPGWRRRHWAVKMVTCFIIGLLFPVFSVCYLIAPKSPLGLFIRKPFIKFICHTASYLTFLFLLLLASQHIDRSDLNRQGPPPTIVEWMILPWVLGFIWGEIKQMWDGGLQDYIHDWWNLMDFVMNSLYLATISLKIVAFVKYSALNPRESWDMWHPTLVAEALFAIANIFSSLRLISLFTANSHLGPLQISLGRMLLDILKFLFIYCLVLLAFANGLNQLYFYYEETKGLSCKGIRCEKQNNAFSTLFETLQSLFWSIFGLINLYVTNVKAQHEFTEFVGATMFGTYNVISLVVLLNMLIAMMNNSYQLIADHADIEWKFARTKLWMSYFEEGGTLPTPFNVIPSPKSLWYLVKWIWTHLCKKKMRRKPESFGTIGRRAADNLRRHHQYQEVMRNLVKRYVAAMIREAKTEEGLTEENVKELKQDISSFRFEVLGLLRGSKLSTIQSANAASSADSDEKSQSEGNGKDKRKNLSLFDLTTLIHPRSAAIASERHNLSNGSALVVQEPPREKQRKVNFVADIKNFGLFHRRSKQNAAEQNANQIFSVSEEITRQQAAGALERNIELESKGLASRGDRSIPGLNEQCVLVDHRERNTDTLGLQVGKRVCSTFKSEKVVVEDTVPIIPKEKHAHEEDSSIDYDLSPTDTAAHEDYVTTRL

[2] = molecular target: Intestinal-type alkaline phosphatase (Homo sapiens, UniProt P09923); assay: Dose Response confirmation of uHTS hits from a small molecule inhibitors of human intestinal alkaline phosphatase via a luminescent assay. [Related pubchem assays (depositor defined):AID2544, AID2574]; type: functional
[3] = molecular target: X-box-binding protein 1 (Homo sapiens, UniProt P17861); type: functional, Cricetulus griseus;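 also: confirmatory dose-response counter-screen serving a CHOP assay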
[4] = molecular target: Protein phosphatase methylesterase 1 (Homo sapiens, UniProt Q9Y570); assay: PME-1 inhibitor potency by in-gel ABPP, dose response, selectivity assay for PME-1 inhibitor project, cell lysate, mouse brain cytosol, FP-rhodamine, panel member PME-1 Assay Panel member description: Inhibition of endogenously expressed PME-1 (AID 2366)
Chain of Protein phosphatase methylesterase 1 (Q9Y570 whole entry): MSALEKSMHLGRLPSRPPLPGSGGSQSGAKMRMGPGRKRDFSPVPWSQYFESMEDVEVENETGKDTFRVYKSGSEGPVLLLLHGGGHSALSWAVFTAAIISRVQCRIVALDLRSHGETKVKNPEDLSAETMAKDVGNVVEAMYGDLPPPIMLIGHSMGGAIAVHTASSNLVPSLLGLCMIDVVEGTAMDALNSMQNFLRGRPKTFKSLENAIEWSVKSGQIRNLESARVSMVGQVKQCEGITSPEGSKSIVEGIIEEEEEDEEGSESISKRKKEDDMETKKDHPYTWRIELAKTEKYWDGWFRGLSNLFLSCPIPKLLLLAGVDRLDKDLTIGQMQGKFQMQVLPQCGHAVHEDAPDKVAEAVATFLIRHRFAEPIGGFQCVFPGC

[5] = molecular target: T2, Rac GTPase-activating protein 1 (Homo sapiens, UniProt Q9H0H5); assay: MgcRacGAP GTPase-activating activity inhibitors, confirmation, biochemical, ADP Hunter fluorescence, primary and confirmatory (AID 624330); type: functional
T2 sequence (Q9H0H5 whole entry): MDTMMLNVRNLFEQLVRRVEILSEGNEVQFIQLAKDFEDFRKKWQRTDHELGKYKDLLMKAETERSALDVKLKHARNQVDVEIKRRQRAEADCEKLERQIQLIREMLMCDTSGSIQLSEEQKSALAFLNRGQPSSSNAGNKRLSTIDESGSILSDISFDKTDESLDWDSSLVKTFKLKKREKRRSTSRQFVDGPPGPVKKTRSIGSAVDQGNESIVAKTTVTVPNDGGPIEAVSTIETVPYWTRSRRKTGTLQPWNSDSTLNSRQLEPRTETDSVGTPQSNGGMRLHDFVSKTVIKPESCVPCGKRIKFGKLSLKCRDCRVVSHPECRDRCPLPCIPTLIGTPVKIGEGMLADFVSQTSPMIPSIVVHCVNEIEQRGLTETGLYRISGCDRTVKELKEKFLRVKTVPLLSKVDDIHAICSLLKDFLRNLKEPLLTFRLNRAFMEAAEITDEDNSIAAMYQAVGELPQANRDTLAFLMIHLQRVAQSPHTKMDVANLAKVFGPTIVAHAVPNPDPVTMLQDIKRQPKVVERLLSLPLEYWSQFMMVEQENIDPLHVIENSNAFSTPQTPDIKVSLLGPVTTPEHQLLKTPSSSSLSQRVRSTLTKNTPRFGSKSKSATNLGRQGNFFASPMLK

[6] = molecular target: Endoplasmic reticulum aminopeptidase 1 (Homo sapiens, UniProt Q9NZ08); assay: ERAP1 aminopeptidase inhibitors, dose response, biochemical, cherry-pick, set 2, plate reader (AID 743314)
Chain of Endoplasmic reticulum aminopeptidase 1 (Q9NZ08 whole entry): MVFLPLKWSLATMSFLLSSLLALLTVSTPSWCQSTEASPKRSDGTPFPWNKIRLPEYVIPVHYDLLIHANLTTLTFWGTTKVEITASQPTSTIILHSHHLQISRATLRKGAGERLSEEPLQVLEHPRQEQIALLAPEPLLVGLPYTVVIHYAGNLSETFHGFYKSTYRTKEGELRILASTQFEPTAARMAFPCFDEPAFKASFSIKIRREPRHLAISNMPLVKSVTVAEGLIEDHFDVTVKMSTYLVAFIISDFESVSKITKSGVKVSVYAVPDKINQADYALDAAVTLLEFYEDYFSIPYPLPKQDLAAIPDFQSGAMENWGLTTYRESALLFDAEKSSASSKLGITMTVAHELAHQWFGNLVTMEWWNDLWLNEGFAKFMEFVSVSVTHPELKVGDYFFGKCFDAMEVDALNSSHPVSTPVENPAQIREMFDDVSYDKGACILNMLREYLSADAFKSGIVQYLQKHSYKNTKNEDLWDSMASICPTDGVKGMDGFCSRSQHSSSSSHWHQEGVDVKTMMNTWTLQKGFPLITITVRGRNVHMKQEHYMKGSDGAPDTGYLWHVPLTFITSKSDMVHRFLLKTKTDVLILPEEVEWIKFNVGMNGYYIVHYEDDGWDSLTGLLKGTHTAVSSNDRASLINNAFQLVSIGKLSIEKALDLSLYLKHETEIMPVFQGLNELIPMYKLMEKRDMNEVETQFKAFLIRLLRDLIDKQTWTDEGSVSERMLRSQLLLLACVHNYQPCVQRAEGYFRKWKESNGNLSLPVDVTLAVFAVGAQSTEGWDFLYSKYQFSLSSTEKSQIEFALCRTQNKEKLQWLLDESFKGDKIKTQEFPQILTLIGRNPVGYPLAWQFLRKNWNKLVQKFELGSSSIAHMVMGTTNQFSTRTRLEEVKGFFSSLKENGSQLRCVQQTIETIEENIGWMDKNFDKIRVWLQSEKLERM

[7] = Shn3 3'UTR reporter inhibitors, dose response, cell-based, Clone20 osteoblasts, firefly luciferase, cherry-picked (AID 624132); type: functional;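 also: firefly luciferase luminescence from reporter carrying the Shn3 3'UTR in osteoblasts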
[8] = HepG2 cell cytotoxicity, dose response, cytotoxicity control for Shn3 inhibitor project, CellTiter-Glo, cherry-picked (AID 624134); type: functional, cell-based
[9] = Cytotoxicity screening for potential Inhibitors of Bacterial Capsule Biogenesis. [Related pubchem assays (depositor defined):AID488970]; type: functional
[10] = HeLa cell cytotoxicity, dose response, cytotoxicity control for MgcRacGAP inhibitor project (AID 624300); type: functional
[11] = control 3'UTR Renilla luciferase suppression, dose response, counter-screen for Shn3 inhibitor project, cell-based, Clone20-Shn3RL, cherry-picked (AID 624133); type: functional
[12] = molecular target: T3, DNA repair protein RAD52 homolog (Homo sapiens, UniProt P43351); type: functional, biochemical
T3 sequence (P43351 whole entry): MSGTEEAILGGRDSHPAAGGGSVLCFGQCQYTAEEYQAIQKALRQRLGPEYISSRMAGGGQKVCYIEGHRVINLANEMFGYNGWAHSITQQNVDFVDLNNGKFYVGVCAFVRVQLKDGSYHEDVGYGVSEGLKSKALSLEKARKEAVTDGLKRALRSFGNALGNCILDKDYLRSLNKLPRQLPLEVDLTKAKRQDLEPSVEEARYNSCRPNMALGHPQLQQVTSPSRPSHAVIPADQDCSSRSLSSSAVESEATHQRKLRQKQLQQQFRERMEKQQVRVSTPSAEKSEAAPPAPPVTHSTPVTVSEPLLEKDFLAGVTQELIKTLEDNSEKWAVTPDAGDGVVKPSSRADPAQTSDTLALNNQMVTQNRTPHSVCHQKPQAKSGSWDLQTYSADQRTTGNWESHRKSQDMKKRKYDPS

[13] = IRAP inhibitors, dose response, selectivity assay for ERAP1 modulator project, biochemical, Leu-AMC fluorescence, cherry-picked samples, set 2 (AID 743340)
[14] = molecular target: Nonstructural protein 1 (Influenza A virus, UniProt Q194T2); type: functional, Influenza A virus (A/California/07/2009(H1N1))
Chain of Nonstructural protein 1 (Q194T2 whole entry): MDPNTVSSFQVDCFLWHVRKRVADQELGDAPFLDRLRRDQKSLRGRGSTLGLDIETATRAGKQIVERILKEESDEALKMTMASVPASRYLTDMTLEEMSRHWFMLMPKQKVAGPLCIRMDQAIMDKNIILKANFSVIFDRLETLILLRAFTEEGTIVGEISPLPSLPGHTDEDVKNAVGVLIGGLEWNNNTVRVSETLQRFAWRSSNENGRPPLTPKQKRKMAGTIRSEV

[15] = molecular target: T4, Voltage-gated N-type calcium channel alpha-1B subunit/Amyloid beta A4 precursor protein-binding family A member 1 (Homo sapiens, UniProt Q00975+Q02410); assay: disruptors of Mint-PDZ/N-type channel peptide interaction – biochemical, HTRF, set 2, SAR follow-up (AID 434980); type: functional
T4 sequence (Q00975 whole entry): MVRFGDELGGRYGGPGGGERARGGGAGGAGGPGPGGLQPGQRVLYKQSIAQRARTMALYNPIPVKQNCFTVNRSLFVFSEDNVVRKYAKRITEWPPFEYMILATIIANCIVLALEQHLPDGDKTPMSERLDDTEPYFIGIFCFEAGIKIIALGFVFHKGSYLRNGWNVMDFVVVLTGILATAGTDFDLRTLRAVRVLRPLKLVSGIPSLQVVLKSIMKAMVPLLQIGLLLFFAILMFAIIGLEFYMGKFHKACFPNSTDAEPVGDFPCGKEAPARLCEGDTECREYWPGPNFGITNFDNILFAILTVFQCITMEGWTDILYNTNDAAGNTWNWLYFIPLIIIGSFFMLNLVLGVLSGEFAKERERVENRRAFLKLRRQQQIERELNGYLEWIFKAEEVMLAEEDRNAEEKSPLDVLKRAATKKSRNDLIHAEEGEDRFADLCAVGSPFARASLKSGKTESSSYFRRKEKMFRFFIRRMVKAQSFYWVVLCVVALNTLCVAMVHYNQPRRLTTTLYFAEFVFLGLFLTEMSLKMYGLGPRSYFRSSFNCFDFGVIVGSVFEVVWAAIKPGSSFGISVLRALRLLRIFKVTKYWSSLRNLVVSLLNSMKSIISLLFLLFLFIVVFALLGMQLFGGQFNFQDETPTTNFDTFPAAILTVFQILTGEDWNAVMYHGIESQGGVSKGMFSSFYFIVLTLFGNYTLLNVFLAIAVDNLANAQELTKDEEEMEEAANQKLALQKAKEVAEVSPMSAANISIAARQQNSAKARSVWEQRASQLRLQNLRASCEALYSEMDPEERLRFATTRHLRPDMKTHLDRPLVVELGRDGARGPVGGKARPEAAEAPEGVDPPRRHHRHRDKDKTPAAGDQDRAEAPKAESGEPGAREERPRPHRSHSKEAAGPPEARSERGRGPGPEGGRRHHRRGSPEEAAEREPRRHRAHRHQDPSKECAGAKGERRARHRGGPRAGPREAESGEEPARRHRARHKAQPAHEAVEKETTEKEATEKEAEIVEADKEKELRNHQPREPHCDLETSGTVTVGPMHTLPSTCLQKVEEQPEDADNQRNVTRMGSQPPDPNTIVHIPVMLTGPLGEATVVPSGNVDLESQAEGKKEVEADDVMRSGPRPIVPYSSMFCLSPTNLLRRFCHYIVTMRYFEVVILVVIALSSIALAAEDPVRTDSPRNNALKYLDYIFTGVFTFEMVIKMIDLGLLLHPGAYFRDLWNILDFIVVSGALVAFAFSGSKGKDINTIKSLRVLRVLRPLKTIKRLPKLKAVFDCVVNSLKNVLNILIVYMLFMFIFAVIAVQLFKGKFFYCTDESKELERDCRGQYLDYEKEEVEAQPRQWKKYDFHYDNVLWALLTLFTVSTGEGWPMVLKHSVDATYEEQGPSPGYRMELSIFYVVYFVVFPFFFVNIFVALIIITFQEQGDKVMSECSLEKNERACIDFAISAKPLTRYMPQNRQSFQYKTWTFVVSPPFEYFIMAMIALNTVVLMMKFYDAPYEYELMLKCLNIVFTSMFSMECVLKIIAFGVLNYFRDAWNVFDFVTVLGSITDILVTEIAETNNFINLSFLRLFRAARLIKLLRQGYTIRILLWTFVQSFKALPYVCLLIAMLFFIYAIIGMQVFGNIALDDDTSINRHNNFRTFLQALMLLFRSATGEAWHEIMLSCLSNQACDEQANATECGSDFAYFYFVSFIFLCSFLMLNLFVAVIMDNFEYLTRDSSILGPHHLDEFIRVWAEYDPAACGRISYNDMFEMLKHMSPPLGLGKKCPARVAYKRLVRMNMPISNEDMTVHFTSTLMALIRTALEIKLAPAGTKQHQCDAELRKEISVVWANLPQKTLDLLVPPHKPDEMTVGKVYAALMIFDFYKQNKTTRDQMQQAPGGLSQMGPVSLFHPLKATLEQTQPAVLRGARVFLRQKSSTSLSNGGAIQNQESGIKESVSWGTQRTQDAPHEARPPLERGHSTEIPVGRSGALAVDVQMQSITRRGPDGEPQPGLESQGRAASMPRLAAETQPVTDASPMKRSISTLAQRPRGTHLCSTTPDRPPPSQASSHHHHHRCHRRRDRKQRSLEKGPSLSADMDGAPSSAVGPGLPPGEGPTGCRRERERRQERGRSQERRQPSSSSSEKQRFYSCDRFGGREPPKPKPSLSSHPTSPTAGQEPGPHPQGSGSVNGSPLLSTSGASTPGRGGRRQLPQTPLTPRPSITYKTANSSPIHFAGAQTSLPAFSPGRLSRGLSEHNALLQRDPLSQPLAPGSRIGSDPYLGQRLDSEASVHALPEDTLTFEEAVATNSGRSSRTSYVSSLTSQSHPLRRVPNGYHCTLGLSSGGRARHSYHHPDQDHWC
T4 sequence (Q02410 whole entry): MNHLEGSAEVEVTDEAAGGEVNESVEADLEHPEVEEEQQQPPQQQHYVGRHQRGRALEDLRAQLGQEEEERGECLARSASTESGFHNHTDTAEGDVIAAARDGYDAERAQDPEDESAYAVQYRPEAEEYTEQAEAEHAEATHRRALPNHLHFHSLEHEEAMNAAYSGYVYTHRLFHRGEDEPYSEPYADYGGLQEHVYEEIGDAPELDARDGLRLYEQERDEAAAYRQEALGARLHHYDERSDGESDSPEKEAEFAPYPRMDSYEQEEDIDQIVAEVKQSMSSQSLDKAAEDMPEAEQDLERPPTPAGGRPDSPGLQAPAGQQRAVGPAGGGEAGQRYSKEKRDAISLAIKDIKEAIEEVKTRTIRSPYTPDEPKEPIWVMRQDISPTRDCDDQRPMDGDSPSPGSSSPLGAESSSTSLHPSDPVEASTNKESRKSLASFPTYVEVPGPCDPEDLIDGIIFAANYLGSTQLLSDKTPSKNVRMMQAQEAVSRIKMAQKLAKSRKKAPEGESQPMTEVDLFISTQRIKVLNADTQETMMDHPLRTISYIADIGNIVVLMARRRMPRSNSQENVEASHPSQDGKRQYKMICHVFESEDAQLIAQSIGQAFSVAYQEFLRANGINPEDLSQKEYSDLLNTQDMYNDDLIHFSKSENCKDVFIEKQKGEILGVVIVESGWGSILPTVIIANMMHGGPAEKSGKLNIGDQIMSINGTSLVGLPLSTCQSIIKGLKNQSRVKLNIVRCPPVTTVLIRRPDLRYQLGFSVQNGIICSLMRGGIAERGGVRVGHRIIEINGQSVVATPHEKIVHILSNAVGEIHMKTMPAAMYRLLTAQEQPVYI

[16] = molecular target: T4, Voltage-gated N-type calcium channel alpha-1B subunit/Amyloid beta A4 precursor protein-binding family A member 1; assay: disruptors of Mint-PDZ/N-type channel peptide interaction – biochemical, HTRF, SAR follow-up (AID 2489); type: functional
[17] = molecular target: T5, Dual specificity protein phosphatase 6 (Rattus norvegicus, UniProt Q64346); type: functional;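 also: confirmatory in vitro dose-response testing of MKP-3 inhibition; recombinant His-tagged MKP-3 made in E. coli BL21 with OMFP substrate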
T5 sequence (Q64346 whole entry): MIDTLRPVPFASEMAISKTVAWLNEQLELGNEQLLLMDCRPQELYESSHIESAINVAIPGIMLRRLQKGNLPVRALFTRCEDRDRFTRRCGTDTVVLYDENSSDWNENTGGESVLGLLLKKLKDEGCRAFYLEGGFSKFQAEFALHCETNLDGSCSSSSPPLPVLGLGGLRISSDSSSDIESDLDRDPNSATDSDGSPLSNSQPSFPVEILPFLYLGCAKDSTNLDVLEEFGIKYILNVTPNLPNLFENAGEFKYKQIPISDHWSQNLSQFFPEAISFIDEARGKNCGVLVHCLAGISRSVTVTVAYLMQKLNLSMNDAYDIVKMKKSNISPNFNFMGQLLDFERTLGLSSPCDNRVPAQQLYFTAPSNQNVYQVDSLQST

[18] = molecular target: Tyrosine-protein phosphatase non-receptor type 12 (Homo sapiens, UniProt Q05209); assay: SAR Selectivity Analysis of small molecule inhibitors of PEST using pCAP in a fluorescence assay. [Related pubchem assays (depositor defined):AID1779, AID1784, AID2135]; type: functional
[19] = molecular target: T6, Tyrosine-protein phosphatase non-receptor type 7 (Homo sapiens, UniProt P35236); assay: redox-dependent HePTP inhibition, mechanism study, biochemical, fluorescence (AID 2068); type: functional
T6 sequence (P35236 whole entry): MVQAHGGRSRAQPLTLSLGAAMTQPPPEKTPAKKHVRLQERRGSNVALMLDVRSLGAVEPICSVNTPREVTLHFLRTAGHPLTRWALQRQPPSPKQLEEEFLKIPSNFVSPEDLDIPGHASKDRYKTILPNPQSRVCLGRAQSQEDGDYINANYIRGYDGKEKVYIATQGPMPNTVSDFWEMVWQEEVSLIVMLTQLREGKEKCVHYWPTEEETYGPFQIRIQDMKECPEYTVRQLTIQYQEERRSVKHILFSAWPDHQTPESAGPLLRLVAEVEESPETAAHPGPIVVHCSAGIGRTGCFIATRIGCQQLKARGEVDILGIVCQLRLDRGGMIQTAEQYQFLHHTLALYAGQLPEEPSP

[20] = molecular target: T7, Dual specificity protein phosphatase 3 (Homo sapiens, UniProt P51452); assay: SAR VHR1 Fluorescent Assay for In Vitro dose response studies. [Related pubchem assays (depositor defined):AID1654, AID1661, AID1878, AID1992, AID2004, AID2070, AID2085]; type: functional
T7 sequence (P51452 whole entry): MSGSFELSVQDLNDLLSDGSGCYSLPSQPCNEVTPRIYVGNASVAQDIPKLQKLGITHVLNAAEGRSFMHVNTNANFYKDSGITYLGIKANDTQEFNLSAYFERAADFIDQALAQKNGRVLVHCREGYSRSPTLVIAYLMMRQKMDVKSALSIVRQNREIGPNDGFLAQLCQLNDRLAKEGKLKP

[21] = molecular target: T7, Dual specificity protein phosphatase 3; assay: SAR VHR1 absorbance Assay for In Vitro dose response studies. [Related pubchem assays (depositor defined):AID1654, AID1661, AID1878, AID1992, AID2004]
[22] = molecular target: T8, Tyrosine-protein phosphatase non-receptor type 22 (Homo sapiens, UniProt Q9Y2R2); assay: LYP (PTPN22) phosphatase inhibitor potency, SAR follow-up, biochemical, pCAP fluorogenic substrate, fluorescence, set 3 (AID 449727); type: functional
T8 sequence (Q9Y2R2 whole entry): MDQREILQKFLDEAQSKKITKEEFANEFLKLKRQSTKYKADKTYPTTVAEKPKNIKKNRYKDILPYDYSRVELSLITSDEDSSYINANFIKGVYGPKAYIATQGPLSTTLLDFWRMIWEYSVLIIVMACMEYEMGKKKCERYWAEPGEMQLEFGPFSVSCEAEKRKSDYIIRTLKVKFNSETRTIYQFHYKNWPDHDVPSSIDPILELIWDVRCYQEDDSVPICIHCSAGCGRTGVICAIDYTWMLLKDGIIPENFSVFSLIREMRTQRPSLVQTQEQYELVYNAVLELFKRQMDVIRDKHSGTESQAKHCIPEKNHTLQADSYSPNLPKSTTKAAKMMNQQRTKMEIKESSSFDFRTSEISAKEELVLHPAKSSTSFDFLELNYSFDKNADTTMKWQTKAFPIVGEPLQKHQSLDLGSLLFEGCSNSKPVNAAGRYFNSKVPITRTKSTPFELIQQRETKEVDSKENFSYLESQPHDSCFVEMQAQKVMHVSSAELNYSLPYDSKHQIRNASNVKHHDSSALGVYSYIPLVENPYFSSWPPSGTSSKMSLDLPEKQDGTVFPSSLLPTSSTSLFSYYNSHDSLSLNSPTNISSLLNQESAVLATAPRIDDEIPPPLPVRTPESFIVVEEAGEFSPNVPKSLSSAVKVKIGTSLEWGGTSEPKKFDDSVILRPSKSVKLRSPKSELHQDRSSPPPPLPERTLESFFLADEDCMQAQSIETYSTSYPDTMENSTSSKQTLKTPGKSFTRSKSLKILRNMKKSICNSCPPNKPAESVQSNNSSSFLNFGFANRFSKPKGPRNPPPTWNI

[23] = molecular target: T8, Tyrosine-protein phosphatase non-receptor type 22; assay: SAR LYP1 Fluorescent Assay using OMFP substrate for In Vitro dose response studies - Set 3. [Related pubchem assays (depositor defined):AID1779, AID1784, AID2140, AID2686]; type: functional
[24] = molecular target: ORF 73 (Human herpesvirus 8, UniProt O40947); assay: inhibitors of C-LANA binding to LBS DNA, dose response, biochemical, fluorescence polarization, cherry-picked samples (AID 504725); set-up: species or system Human gammaherpesvirus 8;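 also: fluorescence polarization of a labeled DNA duplex reporting LANA DNA binding; potency is for inhibitors that block LANA binding to the DNA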

CCCCn1c2ccccc2c2nnc(SCCN3CCCCC3)nc21
EC50 [1]: 6.68 µM (active)

COC(=O)CN1C(=O)C(O)(CC(=O)c2ccc(C)cc2)c2ccccc21 (centres undefined)
IC50 [2]: > 100 µM (inactive)

Cc1csc(NC(=O)CSc2nnc3c4ccccc4nc(C(C)(C)C)n23)n1
Absolute IC50 (XBP1) [3]: 10 µM

N#CC(C#N)=Cc1cccn1S(=O)(=O)c1ccccc1
IC50 [4]: 20 µM (inactive)

CCN(CCCl)c1cc(CN(C)C)cc(NC(=O)c2ccc(C(=O)Nc3cc(CN(C)C)cc(N(CC)CCCl)c3)cc2)c1
IC50 [5]: 126 µM (active) | AC50 [6]: 4.85 µM (active) | AC50 [7]: 2.65 µM (active) | AC50 [8]: 1.25 µM (active) | CC50 [9]: < 0.38 µM (active) | CC50 [10]: 6.78 µM (active) | AC50 [11]: 13.1 µM (active) | AC50 [12]: 1.71 µM (active) | AC50 [13]: 19.4 µM (active) | IC50 [14]: 7.89 µM (active)

CC12C=CC(C)(O1)C1C(=O)N(c3ccc(Cl)cc3)C(=O)C12 (centres undefined)
IC50 [15]: > 56.8 µM (inactive) | IC50 [16]: > 56.8 µM (inactive)

Cc1cc(OCC(=O)O)ccc1S(C)(=O)=O
IC50 [17]: > 99 µM (inactive) | IC50 [18]: > 100 µM (inactive) | IC50 [19]: > 100 µM (inactive) | IC50 [20]: > 99 µM (inactive) | IC50 [21]: > 100 µM (inactive) | IC50 [22]: > 100 µM (inactive) | IC50 [23]: > 100 µM (inactive)

CCOc1ccc(-n2c(Cc3cc(O)nc(O)n3)nnc2SCc2cccnc2)cc1
AC50 [24]: 76.4 µM (active)
